Percent remaining data for one compound are collected here from PubChem BioAssay AID504741 (National Center for Advancing Translational Sciences (NCATS), 2011).

For this data set, the system named is PBS pH 7.4 stability, 37 C, LC-MS/MS, 48 h. Put plainly: Inhibitors of Bloom's syndrome helicase: PBS Stability Profiling Assay. The conditions noted are these: at 2 µM; stronger effect = higher value. An excerpt: Survival of cells and the faithful propagation of the genome depend on elaborate mechanisms of detecting and repairing DNA damage. Treatment of advanced cancer relies on radiation therapy or chemotherapy, which kill cancer cells by causing extensive DNA damage. It is often found, that cancer cells develop resistance to therapy through enhanced activity of DNA repair functions; this has led to an increased interest in developing drugs that interfere with DNA repair, which could sensitize cancer cells to conventional therapy. Bloom syndrome helicase (BLM), is important in resolving abnormal DNA structures formed during replication or homologous recombination. Shutting down the expression of BLM leads to chromosomal instability and higher radiation sensitivity in cultured cells. After the completion of a qHTS campaign, secondary assays, and rounds of medicinal chemistry, a compound was identified to be further characterized through in vitro ADME assays. […]
2uM of compound is incubated in PBS buffer at pH 7; the reference compound is procaine. Compounds are incubated at 37 deg C for the pre-determined time periods and the when aliquots are removed. Samples are analyzed with LC-MS/MS.

`O=C(Nc1ccc(F)c(C(F)(F)F)c1)Nc1nnc(-c2ccncc2)s1`: the percent remaining was 100%.
